The text below walks through data of paper PMC9841431 (Nucleic Acids Research, 2022).

Usually CC50 stands for the concentration giving 50% cytotoxicity. Low readings indicate harm at low concentration, high ones better tolerance by the cells.

One data set can be described thus: in vitro. The conditions noted are these: African green monkey, VERO cells CC50, 72 h exposure, ATP readout.
In another data set the test system is M. tuberculosis H37Rv. The data set is described as follows: microbe, parasite or virus in culture. The conditions noted are these: for MIC90 / MIC: Mycobacterium tuberculosis, H37RV, read-out: M. tuberculosis MIC90. In kind it is cell-based.
In the next data set the test system is Vero cells. The conditions noted are these: CC50 (Vero) / MIC90 (replicating M. tuberculosis H37Rv).
Data set [1] concerns M. tuberculosis H37Rv in infected mouse Bone Marrow-Derived Macrophages. The class given is cell-based, Mycobacterium tuberculosis. The conditions noted are these: BMDM; for Reduction of the burden of intracellular bacteria: 32 × MIC.
Another data set relates to M. bovis BCG cultures. The class given is cell-based, Mycobacterium bovis BCG.
The subject of data set [2] is non-replicating M. tuberculosis H37Rv. The class given is cell-based, Mycobacterium tuberculosis. The conditions noted are these: MBC90 NR / MIC90 replicating.
For a further data set, the target named is Mrx2WT (Mycobacterium tuberculosis, UniProt O53193). Kind of data set: Mrx2 enzyme kinetic assay. The class given is biochemical, M. tuberculosis. The conditions noted are these: 10 μM compound, 30 μM enzyme, absorbance at 412 nm.
Chain of Mrx2WT (O53193 whole entry): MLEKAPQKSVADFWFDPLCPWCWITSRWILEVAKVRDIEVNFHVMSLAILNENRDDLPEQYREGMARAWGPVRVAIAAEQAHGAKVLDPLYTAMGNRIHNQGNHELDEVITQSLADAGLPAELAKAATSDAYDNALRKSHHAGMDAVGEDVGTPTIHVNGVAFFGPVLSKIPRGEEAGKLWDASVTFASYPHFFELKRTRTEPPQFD
Data set [3] concerns sigH and mrx2 expression in M. tuberculosis H37Rv. Kind of data set: sigH and mrx2 transcriptional levels by qRT-PCR upon compound exposure. In kind it is cell-based, Mycobacterium tuberculosis. The conditions noted are these: 1×, 2×, 4×, 8× MIC90; different time points. (In general: Quantitative PCR measures a nucleic acid by following its amplification.)
A further data set concerns Mrx2 mutants. The class given is biochemical, M. tuberculosis. The conditions noted are these: enzyme kinetic assay.

In brackets after ≈: the same amount, converted by molar mass. Like-named read-outs stand apart in the source and are kept apart here.

`COc1ccc2ccc3oc([N+](=O)[O-])cc3c2c1Br` [nNF-C18, 9-Bromo-8-methoxy-2-nitronaphtho[2,1-b]furan] registered a CC50 in “in vitro” of 2.2 mg/L (≈ 6.83 µM). In addition, the MIC90 in the data set on M. tuberculosis H37Rv turned out to be 0.25 mg/L (≈ 0.776 µM).
In the same order, the values of `COc1ccc2c(ccc3oc([N+](=O)[O-])cc32)c1` [nNF-C16, 7-Methoxy-2-nitronaphtho[2,1-b]furan] are 0.3 mg/L (≈ 1.23 µM) and 0.0625 mg/L (≈ 0.257 µM).
Taken in the same sequence, the figures for `CCCCc1c([N+](=O)[O-])oc2ccc3ccccc3c12` [nNF-C12, 1-Butyl-2-nitronaphtho[2,1-b]furan] were 73.5 mg/L (≈ 273 µM) and 4 mg/L (≈ 14.9 µM).
Consider `Cc1c([N+](=O)[O-])oc2ccc3ccccc3c12` [nNF-C14, 1-Methyl-2-nitronaphtho[2,1-b]furan], for which, in the data set on M. tuberculosis H37Rv, the MIC90 came to 2 mg/L (≈ 8.8 µM). Moreover, in the data set on Vero cells, the “Selectivity index (SI)” value is recorded as greater than 50.
Consider `CCc1c([N+](=O)[O-])oc2ccc3ccccc3c12` [nNF-C17, 1-Ethyl-2-nitronaphtho[2,1-b]furan], for which, in the data set “in vitro”, it took 55.1 mg/L (≈ 228 µM) to reach half-maximal cytotoxicity (CC50). For the same compound, the MIC90 in the data set on M. tuberculosis H37Rv is 2 mg/L (≈ 8.29 µM).
In “in vitro”, `COc1cc2ccc3oc([N+](=O)[O-])cc3c2cc1OC` [nNF-C8, 7,8-Dimethoxy-2-nitronaphtho[2,1-b]furan] registered a CC50 of 0.4 mg/L (≈ 1.46 µM). Also, the MIC90 in the data set on M. tuberculosis H37Rv stood at 0.125 mg/L (≈ 0.457 µM).
As for `COC(=O)c1ccc2c(ccc3oc([N+](=O)[O-])cc32)c1` [nNF-C4, Methyl 2-nitronaphtho[2,1-b]furan-7-carboxylate], the MIC90 with M. tuberculosis H37Rv worked out at 0.125 mg/L (≈ 0.461 µM). The “Reduction of the number of intracellular M. tuberculosis bacteria” value in data set [1] (2 times of MIC90 (0.25 μg/ml)) was “ca. 2 logs”. Further, in [1], the “Reduction of the burden of intracellular bacteria” value was “more than 4 logs”. Further, in the data set on M. bovis BCG cultures, the “NO release in treated M. bovis BCG cultures” value (from here on “NO release”) is reported as “significant NO release in a concentration dependent manner” and the “Nitrite levels relative to nNF-C2” value was roughly 4 times. In [2], the “Activity against non-replicating M. tuberculosis in the charcoal assay relative to MIC90 against replicating bacteria” value was 4–8 times.
Regarding `CO[C@H]1/C=C/O[C@@]2(C)Oc3c(C)c(O)c4c(O)c(c(/C=N/N5CCN(C)CC5)c(O)c4c3C2=O)NC(=O)/C(C)=C\C=C\[C@H](C)[C@H](O)[C@@H](C)[C@@H](O)[C@@H](C)[C@H](OC(C)=O)[C@@H]1C` [RIF, Rifampicin, reference compound], the CC50 in the data set “in vitro” is 78.2 mg/L (≈ 95 µM). In addition, the MIC in the data set on M. tuberculosis H37Rv was 0.01 mg/L (≈ 0.0122 µM). Further, the “Concentration needed to achieve a similar level (ca. 2 logs) of intracellular killing” value in data set [1] (32 times its MIC) is given as 0.32 μg/ml. Moreover, the “Selectivity index (SI)” value in the data set on Vero cells worked out at 7824.1.
“1-Butyl-2-nitronaphtho[2,1-b]furan [nNF-C11]”: in the data set with M. tuberculosis H37Rv (REMA, H37Rv, median), the “MIC90 R[…]. tuberculosis μM (median)” value is 32.89 µM and the “MIC90 R[…]. tuberculosis μg/ml (median)” value turned out to be 8 µg/mL. In addition, the “MIC90 R[…]. tuberculosis μg/ml (range)” value in the data set with M. tuberculosis H37Rv (REMA, H37Rv, range) lay in the range of 8 to 16 µg/mL. Also, the “M. tuberculosis MIC90” value in the data set on M. tuberculosis H37Rv (value used for SI in Table 2) came out at 8 mg/L.
As for `O=[N+]([O-])c1cc2c(ccc3c2ccc2cc([N+](=O)[O-])oc23)o1` [nNF-C1, 2,7-dinitronaphtho[1,2-b:6,5-b']difuran], the MIC90 with M. tuberculosis H37Rv worked out at 0.125 mg/L (≈ 0.419 µM).
In the case of `O=[N+]([O-])c1cc2c(ccc3c4cc([N+](=O)[O-])oc4ccc23)o1` [nNF-C3, 2,7-Dinitronaphtho[2,1-b:6,5-b']difuran], in the data set on M. tuberculosis H37Rv, the MIC worked out at 1 mg/L (≈ 3.35 µM).
For the compound `O=[N+]([O-])c1cc2c(ccc3cc(Br)ccc32)o1` [nNF-C6, 7-Bromo-2-nitronaphtho[2,1-b]furan], the MIC90 in the data set with M. tuberculosis H37Rv was 0.5 mg/L (≈ 1.71 µM). Moreover, the “Selectivity index (SI)” value in the data set with Vero cells was found to be 182.6.
`O=[N+]([O-])c1cn2c(n1)OC[C@@H](OCc1ccc(OC(F)(F)F)cc1)C2` [PA-824, Pretomanid, reference compound]: the “NO release” value in the data set on M. bovis BCG cultures is “significant NO release in a concentration dependent manner”.
In the case of `CCOC(=O)COc1ccc2ccc3oc([N+](=O)[O-])cc3c2c1` [nNF-C20, Ethyl 2-({2-nitronaphtho[2,1-b]furan-8-yl}oxy)acetate], it took 9.3 mg/L (≈ 29.5 µM) to reach half-maximal cytotoxicity in “in vitro” (CC50). In addition, in the data set with M. tuberculosis H37Rv, the MIC was determined as 0.25 mg/L (≈ 0.793 µM).
Consider `O=[N+]([O-])c1cc2cc3ccc4oc([N+](=O)[O-])cc4c3cc2o1` [nNF-C2, 2,8-Dinitronaphtho[2,1-b:7,6-b']difuran], for which, at Mrx2WT, the “Metabolism of the compound by Mrx2WT” value was “completely metabolized”. The MIC90 in the data set on M. tuberculosis H37Rv was 0.0625 mg/L (≈ 0.21 µM). In addition, in data set [1] (4 times of MIC90 (0.25 μg/ml)), the “Reduction of the number of intracellular M. tuberculosis bacteria” value is “ca. 2 logs”. In addition, the “Reduction of the burden of intracellular bacteria” value in [1] is listed as “more than 4 logs”. Further, the “NO release” value in the data set on M. bovis BCG cultures is given as “significant NO release in a concentration dependent manner”. In addition, the “Induction of sigH and mrx2 expression” value in [3] is “time and concentration-dependant induction of both genes”. Moreover, the “Activity against non-replicating M. tuberculosis in the charcoal assay relative to MIC90 against replicating bacteria” value in data set [2] is recorded as 4–8 times. For the same compound, the “Activity of Mrx2T25R, Mrx2S46R, Mrx2Y91S, Mrx2H140D and Mrx2R198G against the compound” value in the data set with Mrx2 mutants is “only residual activity”.
The compound `N#Cc1ccc2c(ccc3oc([N+](=O)[O-])cc32)c1` [nNF-C5, 2-Nitronaphtho[2,1-b]furan-7-carbonitrile] showed a CC50 in “in vitro” of 12.5 mg/L (≈ 52.5 µM). For the same compound, the MIC90 in the data set with M. tuberculosis H37Rv came out at 0.25 mg/L (≈ 1.05 µM).
In “in vitro”, `COc1ccc2c(ccc3oc([N+](=O)[O-])c(C)c32)c1` [nNF-C7, 7-Methoxy-1-methyl-2-nitronaphtho[2,1-b]furan] yielded a cytotoxic concentration (CC50) of 67.5 mg/L (≈ 262 µM). Besides, the MIC90 in the data set with M. tuberculosis H37Rv was determined as 4 mg/L (≈ 15.5 µM).
